Laboratory results: ChEMBL document CHEMBL1201862, “PubChem BioAssay data set” (2004)
One block for each compound: values may come before it. Calls of active or inactive are those of the source.

Legend:
[1] = target: DNA dC->dU-editing enzyme APOBEC-3G (Homo sapiens, UniProt Q9HC16); test: Dose Response confirmation of small molecule APOBEC3G DNA Deaminase Inhibitors via a fluorescence-based single-stranded DNA deaminase assay. [Related pubchem assays (depositor defined):AID493012, AID493028]; format: functional
[2] = target: DNA dC->dU-editing enzyme APOBEC-3A (Homo sapiens, UniProt P31941); test: APOBEC3A DNA deaminase inhibitors, dose response, biochemical (AID 504722); format: functional
Sequence of DNA dC->dU-editing enzyme APOBEC-3A (P31941 whole entry): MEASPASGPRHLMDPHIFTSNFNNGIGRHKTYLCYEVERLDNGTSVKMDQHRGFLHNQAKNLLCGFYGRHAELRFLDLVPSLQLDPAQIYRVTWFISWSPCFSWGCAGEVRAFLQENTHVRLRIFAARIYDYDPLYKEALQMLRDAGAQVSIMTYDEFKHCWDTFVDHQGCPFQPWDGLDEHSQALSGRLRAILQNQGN

[3] = target: Lysine-specific demethylase 4C (Homo sapiens, UniProt Q9H3R0); test: GASC-1 (JMJD2C) histone demethylase inhibitors, dose response, biochemical, DELFIA europium, cherry-picked samples (AID 488835); format: functional
Sequence of Lysine-specific demethylase 4C (Q9H3R0 whole entry): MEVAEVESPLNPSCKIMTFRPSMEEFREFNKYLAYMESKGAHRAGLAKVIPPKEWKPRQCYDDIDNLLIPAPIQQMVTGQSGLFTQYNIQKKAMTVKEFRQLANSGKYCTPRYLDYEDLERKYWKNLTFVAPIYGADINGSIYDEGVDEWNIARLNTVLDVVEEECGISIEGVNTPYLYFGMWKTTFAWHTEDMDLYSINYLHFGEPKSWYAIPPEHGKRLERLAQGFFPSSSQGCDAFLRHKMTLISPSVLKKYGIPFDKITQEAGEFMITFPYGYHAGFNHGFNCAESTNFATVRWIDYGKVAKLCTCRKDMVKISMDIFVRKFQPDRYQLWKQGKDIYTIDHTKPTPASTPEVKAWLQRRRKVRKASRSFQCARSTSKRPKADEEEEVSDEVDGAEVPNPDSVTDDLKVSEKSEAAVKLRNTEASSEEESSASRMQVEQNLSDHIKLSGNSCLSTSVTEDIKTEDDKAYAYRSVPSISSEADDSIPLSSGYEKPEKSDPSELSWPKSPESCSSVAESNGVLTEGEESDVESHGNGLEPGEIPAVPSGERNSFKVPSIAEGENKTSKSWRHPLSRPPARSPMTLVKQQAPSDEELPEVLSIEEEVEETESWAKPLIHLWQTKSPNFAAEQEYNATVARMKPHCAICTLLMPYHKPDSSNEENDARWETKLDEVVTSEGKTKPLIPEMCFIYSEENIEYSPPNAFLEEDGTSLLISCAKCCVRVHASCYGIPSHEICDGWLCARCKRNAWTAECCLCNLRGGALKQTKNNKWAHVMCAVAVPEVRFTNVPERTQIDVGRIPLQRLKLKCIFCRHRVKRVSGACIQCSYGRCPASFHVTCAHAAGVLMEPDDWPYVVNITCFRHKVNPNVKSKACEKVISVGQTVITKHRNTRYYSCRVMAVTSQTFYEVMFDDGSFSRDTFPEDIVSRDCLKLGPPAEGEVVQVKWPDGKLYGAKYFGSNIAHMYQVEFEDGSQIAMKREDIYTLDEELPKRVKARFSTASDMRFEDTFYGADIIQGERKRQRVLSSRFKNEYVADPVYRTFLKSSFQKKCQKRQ

[4] = target: Glucose-6-phosphate 1-dehydrogenase (Homo sapiens, UniProt P11413); test: human G6PD enzyme inhibitors, dose response, selectivity assay for P. falciparum G6PD inhibitor project, biochemical, fluorescence (AID 504792); format: functional
Sequence of Glucose-6-phosphate 1-dehydrogenase (P11413 whole entry): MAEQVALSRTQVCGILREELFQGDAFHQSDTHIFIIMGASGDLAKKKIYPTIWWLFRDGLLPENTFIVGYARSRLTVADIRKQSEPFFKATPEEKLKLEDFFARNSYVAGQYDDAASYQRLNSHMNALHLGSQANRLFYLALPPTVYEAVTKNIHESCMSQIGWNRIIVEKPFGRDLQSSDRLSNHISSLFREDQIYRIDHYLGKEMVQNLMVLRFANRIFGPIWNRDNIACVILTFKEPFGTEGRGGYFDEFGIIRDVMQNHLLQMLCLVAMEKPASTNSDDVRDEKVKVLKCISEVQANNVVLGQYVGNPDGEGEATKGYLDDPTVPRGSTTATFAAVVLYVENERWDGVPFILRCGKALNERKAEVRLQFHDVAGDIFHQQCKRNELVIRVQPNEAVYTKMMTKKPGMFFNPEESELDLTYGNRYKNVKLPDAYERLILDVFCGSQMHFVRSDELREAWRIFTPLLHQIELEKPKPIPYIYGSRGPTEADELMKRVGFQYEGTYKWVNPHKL

[5] = target: T1, Tyrosine-protein phosphatase non-receptor type 7 (Homo sapiens, UniProt P35236); format: functional
T1 sequence (P35236 whole entry): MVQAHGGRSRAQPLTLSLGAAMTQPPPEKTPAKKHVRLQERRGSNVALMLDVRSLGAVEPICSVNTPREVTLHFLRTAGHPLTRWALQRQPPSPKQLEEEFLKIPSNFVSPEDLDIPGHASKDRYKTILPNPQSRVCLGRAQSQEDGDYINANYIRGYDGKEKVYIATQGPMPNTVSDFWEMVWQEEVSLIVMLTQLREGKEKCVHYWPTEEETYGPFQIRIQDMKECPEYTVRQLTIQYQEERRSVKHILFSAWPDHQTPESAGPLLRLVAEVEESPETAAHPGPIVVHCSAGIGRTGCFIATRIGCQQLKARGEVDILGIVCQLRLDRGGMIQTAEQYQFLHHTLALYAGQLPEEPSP

[6] = target: T2, Dual specificity protein phosphatase 6 (Rattus norvegicus, UniProt Q64346); format: functional
T2 sequence (Q64346 whole entry): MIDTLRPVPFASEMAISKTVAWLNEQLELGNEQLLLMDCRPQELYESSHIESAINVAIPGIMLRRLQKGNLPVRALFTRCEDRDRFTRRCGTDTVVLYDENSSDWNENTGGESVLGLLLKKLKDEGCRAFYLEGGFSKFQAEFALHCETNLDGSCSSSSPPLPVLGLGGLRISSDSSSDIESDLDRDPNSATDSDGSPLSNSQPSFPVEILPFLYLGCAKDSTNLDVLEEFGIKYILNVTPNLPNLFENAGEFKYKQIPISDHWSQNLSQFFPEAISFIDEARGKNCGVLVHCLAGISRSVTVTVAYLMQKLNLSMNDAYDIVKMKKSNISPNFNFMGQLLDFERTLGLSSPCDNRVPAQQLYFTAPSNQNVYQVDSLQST

[7] = target: Glyceraldehyde-3-phosphate dehydrogenase (Homo sapiens, UniProt P04406)
[8] = target: T2, Dual specificity protein phosphatase 6
[9] = target: T3, Kappa-type opioid receptor (Homo sapiens, UniProt P41145); test: kappa opioid receptor blockers, cell-based, luminescence, beta-arrestin, SAR follow-up (AID 2285); format: functional
T3 sequence (P41145 whole entry): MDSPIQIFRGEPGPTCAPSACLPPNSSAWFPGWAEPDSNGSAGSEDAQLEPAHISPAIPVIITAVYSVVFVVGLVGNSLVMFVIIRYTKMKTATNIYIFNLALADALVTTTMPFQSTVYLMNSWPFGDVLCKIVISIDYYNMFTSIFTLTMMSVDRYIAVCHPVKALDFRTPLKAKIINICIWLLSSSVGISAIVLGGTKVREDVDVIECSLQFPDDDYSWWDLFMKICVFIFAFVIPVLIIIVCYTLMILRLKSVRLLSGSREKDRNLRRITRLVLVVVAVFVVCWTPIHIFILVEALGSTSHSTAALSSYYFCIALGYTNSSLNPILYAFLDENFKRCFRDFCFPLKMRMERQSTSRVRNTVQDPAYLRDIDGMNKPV

[10] = target: T3, Kappa-type opioid receptor; test: KOR agonist analogs, imaging readout, SAR follow-up, image-based (AID 2359); format: functional
[11] = target: T3, Kappa-type opioid receptor; test: KOR antagonists by imaging, SAR follow-up, image-based (AID 2348); format: functional
[12] = target: T4, Mu-type opioid receptor (Homo sapiens, UniProt P35372); test: MOR antagonists, SAR follow-up, image-based (AID 2420); format: functional;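 note: compounds added before stimulation of receptor with agonist DAMGO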
T4 sequence (P35372 whole entry): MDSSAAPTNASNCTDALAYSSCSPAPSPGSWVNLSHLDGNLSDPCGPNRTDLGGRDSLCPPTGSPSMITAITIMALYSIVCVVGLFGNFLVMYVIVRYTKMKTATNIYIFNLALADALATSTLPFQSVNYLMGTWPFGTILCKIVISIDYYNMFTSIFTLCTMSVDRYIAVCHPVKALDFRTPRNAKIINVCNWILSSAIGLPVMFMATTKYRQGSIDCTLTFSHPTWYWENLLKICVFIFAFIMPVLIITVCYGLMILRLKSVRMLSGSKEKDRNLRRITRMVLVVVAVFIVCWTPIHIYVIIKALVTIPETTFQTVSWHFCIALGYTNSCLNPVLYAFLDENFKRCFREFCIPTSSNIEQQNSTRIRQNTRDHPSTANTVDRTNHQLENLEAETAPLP

[13] = target: T5, Delta-type opioid receptor (Homo sapiens, UniProt P41143); test: DOR agonists, SAR follow-up, image-based (AID 2370); format: functional
T5 sequence (P41143 whole entry): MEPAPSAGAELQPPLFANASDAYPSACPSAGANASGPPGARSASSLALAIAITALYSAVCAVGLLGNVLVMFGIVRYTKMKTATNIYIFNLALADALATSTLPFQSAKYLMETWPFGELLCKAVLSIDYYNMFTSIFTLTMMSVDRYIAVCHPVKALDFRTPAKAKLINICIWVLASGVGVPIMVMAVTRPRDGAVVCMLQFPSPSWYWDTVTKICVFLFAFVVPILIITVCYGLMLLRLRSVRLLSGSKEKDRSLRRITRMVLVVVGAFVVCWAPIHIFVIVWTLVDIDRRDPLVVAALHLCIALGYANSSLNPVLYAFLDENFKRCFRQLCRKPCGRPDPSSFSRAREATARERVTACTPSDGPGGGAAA

[14] = target: T4, Mu-type opioid receptor; test: MOR agonists by imaging, SAR follow-up, image-based (AID 2352); format: functional
[15] = target: T5, Delta-type opioid receptor; test: DOR antagonists, SAR follow-up, image-based (AID 2357); format: functional
[16] = target: Peroxisome proliferator-activated receptor gamma/Nuclear receptor coactivator 1 (Homo sapiens, UniProt P37231); test: (§1) TR-FRET dose response biochemical High Throughput Screening assay for agonists of the steroid receptor coactivator 1 (SRC-1) recruitment by the peroxisome proliferator-activated receptor gamma (PPAR gamma): non-selective agonists. [Related pubchem assays (depositor defined):AID1300, AID1808, AID504735, AID631]; format: protein assay
[17] = target: Peroxisome proliferator-activated receptor gamma/Nuclear receptor coactivator 3 (Homo sapiens, UniProt P37231); test: as §1, with “3 (SRC-3)” for “1 (SRC-1)”, “assays: 1301 (Confirmation screen.), 1048 (Primary screen.)]” for “assays (depositor defined):AID1300, AID1808, AID504735, AID631]”; format: functional
Sequence of Peroxisome proliferator-activated receptor gamma/Nuclear receptor coactivator 3 (P37231 whole entry): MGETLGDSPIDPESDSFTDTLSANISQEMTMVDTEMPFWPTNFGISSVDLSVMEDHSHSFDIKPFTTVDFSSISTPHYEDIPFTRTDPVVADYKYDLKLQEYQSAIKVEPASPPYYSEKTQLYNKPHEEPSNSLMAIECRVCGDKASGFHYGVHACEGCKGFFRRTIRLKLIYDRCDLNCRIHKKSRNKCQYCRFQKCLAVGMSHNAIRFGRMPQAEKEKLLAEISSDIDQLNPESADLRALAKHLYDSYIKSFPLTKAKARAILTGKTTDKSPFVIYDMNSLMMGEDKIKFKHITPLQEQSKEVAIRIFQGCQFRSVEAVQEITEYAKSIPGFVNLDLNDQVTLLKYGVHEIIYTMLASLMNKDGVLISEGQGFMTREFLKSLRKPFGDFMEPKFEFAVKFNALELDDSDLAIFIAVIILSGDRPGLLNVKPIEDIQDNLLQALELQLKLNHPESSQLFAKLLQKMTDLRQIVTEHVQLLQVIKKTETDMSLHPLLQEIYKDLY
Sequence of Peroxisome proliferator-activated receptor gamma/Nuclear receptor coactivator 3 (Q9Y6Q9 whole entry, further chain): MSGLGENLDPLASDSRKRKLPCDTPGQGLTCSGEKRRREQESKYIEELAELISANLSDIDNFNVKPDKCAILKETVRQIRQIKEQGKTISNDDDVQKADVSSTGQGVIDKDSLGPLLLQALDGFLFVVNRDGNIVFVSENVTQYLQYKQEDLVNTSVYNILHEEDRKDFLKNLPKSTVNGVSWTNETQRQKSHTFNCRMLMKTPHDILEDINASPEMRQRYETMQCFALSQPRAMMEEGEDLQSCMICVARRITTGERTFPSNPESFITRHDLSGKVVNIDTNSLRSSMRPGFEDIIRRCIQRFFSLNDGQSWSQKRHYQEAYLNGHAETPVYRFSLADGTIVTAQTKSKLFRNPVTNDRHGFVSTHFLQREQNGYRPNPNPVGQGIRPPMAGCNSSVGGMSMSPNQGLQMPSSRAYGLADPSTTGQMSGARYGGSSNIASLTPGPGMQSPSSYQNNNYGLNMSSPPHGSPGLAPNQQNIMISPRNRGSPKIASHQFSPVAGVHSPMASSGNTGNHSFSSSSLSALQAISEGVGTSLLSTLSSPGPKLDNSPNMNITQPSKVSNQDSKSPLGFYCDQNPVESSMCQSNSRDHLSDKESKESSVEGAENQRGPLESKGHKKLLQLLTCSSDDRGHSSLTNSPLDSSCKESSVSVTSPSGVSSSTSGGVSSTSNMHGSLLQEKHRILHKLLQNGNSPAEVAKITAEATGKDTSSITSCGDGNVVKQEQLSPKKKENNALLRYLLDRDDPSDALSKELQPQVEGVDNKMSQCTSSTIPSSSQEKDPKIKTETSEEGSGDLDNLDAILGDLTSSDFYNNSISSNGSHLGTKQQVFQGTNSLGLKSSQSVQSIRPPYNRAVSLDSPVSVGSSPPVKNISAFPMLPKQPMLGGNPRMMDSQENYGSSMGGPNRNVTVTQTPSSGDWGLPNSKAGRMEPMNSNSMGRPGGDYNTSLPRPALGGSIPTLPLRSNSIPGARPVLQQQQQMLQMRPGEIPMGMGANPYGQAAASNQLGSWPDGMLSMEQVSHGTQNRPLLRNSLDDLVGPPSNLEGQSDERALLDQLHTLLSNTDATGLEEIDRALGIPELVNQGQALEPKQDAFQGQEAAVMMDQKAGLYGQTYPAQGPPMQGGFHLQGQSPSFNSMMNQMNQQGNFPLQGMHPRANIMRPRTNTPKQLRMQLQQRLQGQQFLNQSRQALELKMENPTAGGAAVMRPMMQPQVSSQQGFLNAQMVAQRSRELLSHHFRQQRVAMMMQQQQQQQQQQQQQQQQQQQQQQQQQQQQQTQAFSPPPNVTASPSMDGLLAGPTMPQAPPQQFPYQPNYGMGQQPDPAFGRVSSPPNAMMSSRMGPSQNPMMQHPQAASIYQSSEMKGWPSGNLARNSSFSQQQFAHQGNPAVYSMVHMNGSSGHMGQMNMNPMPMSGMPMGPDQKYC

[18] = target: Peroxisome proliferator-activated receptor gamma/Nuclear receptor coactivator 2 (Homo sapiens, UniProt P37231); test: TR-FRET dose response biochemical High Throughput Screening assay for agonists of the steroid receptor coactivator 2 (SRC-2) recruitment by the peroxisome proliferator-activated receptor gamma (PPAR gamma): non-selective agonists. [Related pubchem assays: 1297, 1032 ]; format: functional

SMILES: O=S(=O)(Nc1ccccc1F)c1cccc(NC(=S)NCCN2CCOCC2)c1
IC50 [1]: 7.38 µM (active) | IC50 [2]: > 100 µM (inactive) | AC50 [3]: 8.95 µM (active) | IC50 [4]: > 80 µM (inactive)

IC50 [5]: > 100 µM (not active) | IC50 [6]: > 100 µM (inactive) | IC50 [7]: 27.4 µM (active) | IC50 [8]: > 100 µM (inactive)
SMILES: O=C(Cc1cccs1)Nc1ccon1

IC50 [9]: > 10 µM (inactive) | EC50 [10]: > 32 µM (inactive) | IC50 [11]: > 32 µM (inactive) | IC50 [12]: > 32 µM (inactive) | EC50 [13]: > 32 µM (inactive) | EC50 [14]: > 32 µM (inactive) | IC50 [15]: > 32 µM (inactive)
SMILES: Cc1ccc(S(=O)(=O)NCc2ccc(C(=O)N3CCN(Cc4ccccc4)CC3)cc2)cc1

EC50 [16]: > 79.4 µM (inactive) | EC50 [17]: > 79.4 µM (not active) | EC50 [18]: > 79.4 µM (not active)
SMILES: Cn1c(=O)cc(SCC(=O)NCc2ccco2)c2ccccc21
